{
  "source": "patent US20250250284A1",
  "about": "“MACROCYCLE COMPOUNDS USEFUL AS KRAS INHIBITORS” (Hoffmann-La Roche Inc., priority 2022, published 2025)",
  "key": {"NCI-H358 cells": {"tested_on": "NCI-H358 cells", "assay": "Cell viability assay (Cell Counting Kit-8), KRAS G12C", "assay_type": "cell-based", "conditions": "Homo sapiens, 72 hrs incubation, CCK-8", "experimental": "(§1) The purpose of this cellular assay was to determine the effects of test compounds on the proliferation of human cancer cell lines NCI-H358 (ATCC-CRL5807) cells, AGS (ATCC-CRL-1739) cells, SW620 (ATCC-CCL-227) over a 3-day treatment period by quantifying the amount of NADPH present at endpoint using Cell Counting Kit-8.\n(§2) Cells were seeded at 5,000 cells/well (NCI-H358), 2,000 cells/well (AGS) 2,000 cells/well (SW620) in 96-well assay plates (Corning-3699) and incubated overnight. On the day of the assay, diluted compounds were then added in a final concentration of 0.5% DMSO. After 72 hrs incubation, a tenth of the volume of cell counting kit 8 (Dnjindo-CK04) was added into each well. Read the signal (OD450 minus OD650) using EnVision after 2 hrs incubation. IC50 was determined by fitting a 4-parameter sigmoidal concentration response model."}, "[1]": {"tested_on": "phosphorylation of ERK, KRAS G12D in AGS cells", "assay": "pERK inhibition assay, KRAS G12D", "assay_type": "cell-based", "conditions": "Homo sapiens, 4 hours of incubation", "experimental": "(§3) This assay is to measure the ability of test compounds in inhibiting the phosphorylation of ERK, the downstream signaling of KRAS G12C in NCI-H358 cells, KRAS G12D in AGS cells, and KRAS G12V in SW620. NCI-H358 (ATCC-CRL5807) cells, AGS (ATCC-CRL-1739) cells, SW620 (ATCC-CCL-227) cells were all grown and maintained using RPMI-1640 medium (Thermo Fisher Scientific) with 10% fetal bovine serum and 1% penicillin/streptomycin. On the day prior to compound addition, cells were plated in tissue culture-treated 96 well plates (Corning-3699) at a density of 30,000 cell/well, 20,000 cell/well, 30,000 cell/well for NCI-H358, AGS and SW620 respectively, and allowed for attachment overnight. Diluted compounds were then added in a final concentration of 0.5% DMSO. After 4 hours of incubation, the medium was removed, 100 μL of 4% formaldehyde was added, and the assay plates were incubated at room temperature for 20 minutes. The plates were then washed once with phosphate buffered saline (PBS), and permeabilized with 100 μL of chilled methanol for 10 minutes. Non-specific antibody binding to the plates was blocked using 50 μL 1×BSA blocking buffer (Thermo-37520, 10-fold dilution by Phosphate-Buffered Saline Tween (PBST) for at least 1 hour at room temperature.\n(§4) The amount of phosphor-ERK was determined using an antibody specific for phosphorylated form of ERK. Primary antibody (pERK, CST-4370, Cell Signaling Technology) was diluted 1:300 in blocking buffer, with 50 μL aliquoted to each well, and incubated overnight at 4° C. Cells was washed five times for 5 minutes with PBST. Secondary antibody (HRP-linked anti-rabbit IgG, CST-7074, Cell Signaling Technology) was diluted 1:1000 in blocking buffer, and 50 μL was added to each well and incubated 1-2 hrs at room temperature. Cells was washed 5 times for 5 minutes with PBST, 100 μL TMB ELISA substrate (abcam-ab171523) were added and gently shake for 20 minutes. 50 μL stop solution (abcam-ab171529) were added, and then read the signal (OD450) by EnVision.\n(§5) IC50 was determined by fitting a 4-parameter sigmoidal concentration response model."}, "[2]": {"tested_on": "phosphorylation of ERK, KRAS G12V in SW620", "assay": "pERK inhibition assay, KRAS G12V", "assay_type": "cell-based", "conditions": "Homo sapiens, SW-620; SW620 cells, 4 hours of incubation", "experimental": "as §3, §4, §5"}, "[3]": {"tested_on": "phosphorylation of ERK, KRAS G12C in NCI-H358 cells", "assay": "pERK inhibition assay, KRAS G12C", "assay_type": "cell-based", "conditions": "Homo sapiens, 4 hours of incubation", "experimental": "as §3, §4, §5"}, "[4]": {"target": "KRAS G12V binding to BRAF (Homo sapiens (Human), UniProt P01116+P62937, G12V)", "sequence (P01116-2 other isoform, or with tags, fused parts or gaps G12V)": "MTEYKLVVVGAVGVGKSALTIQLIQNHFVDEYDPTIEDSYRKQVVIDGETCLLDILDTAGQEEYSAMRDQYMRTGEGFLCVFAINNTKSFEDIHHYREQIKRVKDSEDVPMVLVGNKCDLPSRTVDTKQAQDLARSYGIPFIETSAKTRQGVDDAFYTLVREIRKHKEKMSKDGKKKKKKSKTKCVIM", "sequence (P62937 whole entry)": "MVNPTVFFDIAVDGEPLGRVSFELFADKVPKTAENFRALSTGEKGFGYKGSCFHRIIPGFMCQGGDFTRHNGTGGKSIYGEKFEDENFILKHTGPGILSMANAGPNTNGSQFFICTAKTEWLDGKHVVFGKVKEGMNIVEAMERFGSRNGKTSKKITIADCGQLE", "assay": "KRAS-BRAF with CYPA (500 nM) interaction assay (TR-FRET), G12V", "conditions": "GMPPNP loaded 6His-KRAS, GST-BRAF RBD, 3 hours", "experimental": "(§6) KRAS-BRAF with CYPA (500 nM) Interaction Assay\n(§7) In this example, TR-FRET was also used to measure the compound or compound-CYPA dependent disruption of the KRAS G12C-BRAF complex. This protocol was also used to measure disruption of KRAS G12D or KRAS G12V binding to BRAF by a compound of the invention, respectively. In assay buffer containing 25 mM HEPES PH=7.4 (4-(2-hydroxyethyl)-1-piperazineethanesulfonic acid, Thermo, 15630080), 0.002% Tween20, 0.1% BSA, 100 mM NaCl, 5 mM MgCl2, 10 μM GMPPNP (Guanosine 5′-[β,γ-imido]triphosphate trisodium salt hydrate, Sigma, G0635), tagless CYPA, GMPPNP loaded 6His-KRAS proteins, and GST-BRAF^RBD were mixed in a well of a 384-well assay plate at final concentrations of 50 nM, 6.25 nM and 1 nM, respectively. Compound was present in plate wells as a 16-point 3-fold dilution series starting at a final concentration of 10 μM and incubated for 3 hours. A mixture of MAb Anti-6His-XL665 (Cisbio, 61HISXLB) and Mab anti-GST-TB cryptate (Cisbio, 61GSTTLB) was then added at a final concentration of 6.67 nM and 0.21 nM, respectively, and the plate was incubated for an additional 1.5 hours. TR-FRET signal was read on a PHERstar FSX microplate reader (Ex320 nm, Em 665/615 nm). Compounds that facilitate disruption of the KRAS-BRAF complex were identified as those eliciting a decrease in the TR-FRET ratio relative to DMSO control wells."}, "[5]": {"target": "KRAS G12D binding to BRAF (Homo sapiens (Human), UniProt P01116+P62937, G12D)", "sequence (P01116-2 other isoform, or with tags, fused parts or gaps G12D)": "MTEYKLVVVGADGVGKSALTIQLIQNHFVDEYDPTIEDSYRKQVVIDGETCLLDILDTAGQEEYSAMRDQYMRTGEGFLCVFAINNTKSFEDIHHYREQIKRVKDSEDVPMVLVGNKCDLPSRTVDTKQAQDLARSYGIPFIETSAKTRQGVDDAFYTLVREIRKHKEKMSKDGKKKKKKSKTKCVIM", "sequence (P62937 whole entry)": "as the sequence (P62937 whole entry) above", "assay": "KRAS-BRAF with CYPA (500 nM) interaction assay (TR-FRET), G12D", "conditions": "GMPPNP loaded 6His-KRAS, GST-BRAF RBD, 3 hours", "experimental": "as §6, §7"}, "KRAS G12C-BRAF complex": {"target": "KRAS G12C-BRAF complex (Homo sapiens (Human), UniProt P01116+P62937, G12C)", "sequence (P01116-2 other isoform, or with tags, fused parts or gaps G12C)": "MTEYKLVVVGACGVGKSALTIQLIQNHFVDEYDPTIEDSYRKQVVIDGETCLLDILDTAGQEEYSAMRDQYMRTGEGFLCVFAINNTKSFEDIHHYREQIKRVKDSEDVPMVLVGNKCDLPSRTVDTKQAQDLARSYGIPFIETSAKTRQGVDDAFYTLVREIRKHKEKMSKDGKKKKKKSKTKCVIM", "sequence (P62937 whole entry)": "as the sequence (P62937 whole entry) above", "assay": "KRAS-BRAF with CYPA (500 nM) interaction assay (TR-FRET), G12C", "assay_type": "binding", "conditions": "GMPPNP loaded 6His-KRAS, GST-BRAF RBD, 3 hours", "experimental": "as §6, §7"}, "AGS cells": {"tested_on": "AGS cells", "assay": "Cell viability assay (Cell Counting Kit-8), KRAS G12D", "assay_type": "cell-based", "conditions": "Homo sapiens, 72 hrs incubation, CCK-8", "experimental": "as §1, §2"}, "SW620 cells": {"tested_on": "SW620 cells", "assay": "Cell viability assay (Cell Counting Kit-8), KRAS G12V", "assay_type": "cell-based", "conditions": "Homo sapiens, SW-620, 72 hrs incubation, CCK-8", "experimental": "as §1, §2"}},
  "data": [
    {"molecule": "CCn1c(-c2cc(N3CCOCC3)cnc2[C@H](C)OC)c2c3cc(c(F)cc31)-c1csc(n1)C[C@H](NC(=O)[C@H]1C[C@@H]1C)C(=O)N1CCC[C@H](N1)C(=O)OCC(C)(C)C2", "note": "(atropisomer, axis not shown; (M)) [Example 8, (1S,2S)—N-[(7S,13S)-21-ethyl-24-fluoro-(20M)-20-[2-[(1S)-1-methoxyethyl]-5-morpholino-3-pyridyl]-17,17-dimethyl-8,14-dioxo-15-oxa-4-thia-9,21,27,28-tetrazapentacyclo[17.5.2.1^2,5.1^9,13.0^22,26]octacosa-1(25),2,5(28),19,22(26),23-hexaen-7-yl]-2-methyl-cyclopropanecarboxamide]", "values": [
      {"measurement": "IC50", "setting": "NCI-H358 cells", "value": 0.016, "unit": "µM"},
      {"measurement": "IC50", "setting": "[1]", "value": 0.056, "unit": "µM"},
      {"measurement": "IC50", "setting": "[2]", "value": 0.008, "unit": "µM"},
      {"measurement": "IC50", "setting": "[3]", "value": 0.023, "unit": "µM"},
      {"measurement": "IC50", "setting": "[4]", "value": 0.143, "unit": "µM"},
      {"measurement": "IC50", "setting": "[5]", "value": 1.67, "unit": "µM"},
      {"measurement": "IC50", "setting": "KRAS G12C-BRAF complex", "value": 0.16, "unit": "µM"},
      {"measurement": "IC50", "setting": "AGS cells", "value": 1.49, "unit": "µM"},
      {"measurement": "IC50", "setting": "SW620 cells", "value": 0.013, "unit": "µM"}
    ]},
    {"molecule": "CCn1c(-c2cc(N3CCN(C)CC3)cnc2[C@H](C)OC)c2c3cc(c(F)cc31)-c1csc(n1)C[C@H](NC(=O)[C@H]1C[C@@H]1C(F)F)C(=O)N1CCC[C@H](N1)C(=O)OCC(C)(C)C2", "note": "(atropisomer, axis not shown; (M)) [Example 3, (1S,2S)-2-(difluoromethyl)-N-[(7S,13S)-21-ethyl-24-fluoro-(20M)-20-[2-[(1S)-1-methoxyethyl]-5-(4-methylpiperazin-1-yl)-3-pyridyl]-17,17-dimethyl-8,14-dioxo-15-oxa-4-thia-9,21,27,28-tetrazapentacyclo[17.5.2.1^2,5.1^9,13.0^22,26]octacosa-1(25),2,5(28),19,22(26),23-hexaen-7-yl]cyclopropanecarboxamide]", "values": [
      {"measurement": "IC50", "setting": "NCI-H358 cells", "value": 0.0116, "unit": "µM"},
      {"measurement": "IC50", "setting": "[1]", "value": 0.029, "unit": "µM"},
      {"measurement": "IC50", "setting": "[2]", "value": 0.005, "unit": "µM"},
      {"measurement": "IC50", "setting": "[3]", "value": 0.011, "unit": "µM"},
      {"measurement": "IC50", "setting": "[4]", "value": 0.243, "unit": "µM"},
      {"measurement": "IC50", "setting": "[5]", "value": 1.72, "unit": "µM"},
      {"measurement": "IC50", "setting": "KRAS G12C-BRAF complex", "value": 0.196, "unit": "µM"},
      {"measurement": "IC50", "setting": "AGS cells", "value": 0.197, "unit": "µM"},
      {"measurement": "IC50", "setting": "SW620 cells", "value": 0.008, "unit": "µM"}
    ]},
    {"molecule": "CCn1c(-c2cc(N3CCN(C)CC3)cnc2[C@H](C)OC)c2c3cc(c(F)cc31)-c1csc(n1)C[C@H](NC(=O)[C@H]1C[C@@H]1C)C(=O)N1CCC[C@H](N1)C(=O)OCC(C)(C)C2", "note": "(atropisomer, axis not shown; (M)) [Example 1, (1S,2S)—N-[(7S,13S)-21-ethyl-24-fluoro-(20M)-20-[2-[(1S)-1-methoxyethyl]-5-(4-methylpiperazin-1-yl)-3-pyridyl]-17,17-dimethyl-8,14-dioxo-15-oxa-4-thia-9,21,27,28-tetrazapentacyclo[17.5.2.1^2,5.1^9,13.0^22,26]octacosa-1(25),2,5(28),19,22(26),23-hexaen-7-yl]-2-methyl-cyclopropanecarboxamide]", "values": [
      {"measurement": "IC50", "setting": "NCI-H358 cells", "value": 0.018, "unit": "µM"},
      {"measurement": "IC50", "setting": "[1]", "value": 0.034, "unit": "µM"},
      {"measurement": "IC50", "setting": "[2]", "value": 0.004, "unit": "µM"},
      {"measurement": "IC50", "setting": "[3]", "value": 0.011, "unit": "µM"},
      {"measurement": "IC50", "setting": "[4]", "value": 0.211, "unit": "µM"},
      {"measurement": "IC50", "setting": "[5]", "value": 0.915, "unit": "µM"},
      {"measurement": "IC50", "setting": "KRAS G12C-BRAF complex", "value": 0.108, "unit": "µM"},
      {"measurement": "IC50", "setting": "AGS cells", "value": 4.63, "unit": "µM"},
      {"measurement": "IC50", "setting": "SW620 cells", "value": 0.009, "unit": "µM"}
    ]},
    {"molecule": "CO[C@@H](C)c1ncc(N2CCN(CC(F)(F)F)CC2)cc1-c1c2c3cc(c(F)cc3n1CC(F)(F)F)-c1csc(n1)C[C@H](NC(=O)[C@H]1C[C@@H]1C)C(=O)N1CCC[C@H](N1)C(=O)OCC(C)(C)C2", "note": "(atropisomer, axis not shown; (M)) [Example 9, (1S,2S)—N-[(7S,13S)-24-fluoro-(20M)-20-[2-[(1S)-1-methoxyethyl]-5-[4-(2,2,2-trifluoroethyl)piperazin-1-yl]-3-pyridyl]-17,17-dimethyl-8,14-dioxo-21-(2,2,2-trifluoroethyl)-15-oxa-4-thia-9,21,27,28-tetrazapentacyclo[17.5.2.1^2,5.1^9,13.0^22,26]octacosa-1(25),2,5(28),19,22(26),23-hexaen-7-yl]-2-methyl-cyclopropanecarboxamide]", "values": [
      {"measurement": "IC50", "setting": "NCI-H358 cells", "value": 0.224, "unit": "µM"},
      {"measurement": "IC50", "setting": "[1]", "value": 0.161, "unit": "µM"},
      {"measurement": "IC50", "setting": "[2]", "value": 0.022, "unit": "µM"},
      {"measurement": "IC50", "setting": "[3]", "value": 0.047, "unit": "µM"},
      {"measurement": "IC50", "setting": "[4]", "value": 0.171, "unit": "µM"},
      {"measurement": "IC50", "setting": "[5]", "value": 0.66, "unit": "µM"},
      {"measurement": "IC50", "setting": "KRAS G12C-BRAF complex", "value": 0.09, "unit": "µM"},
      {"measurement": "IC50", "setting": "AGS cells", "value": 0.704, "unit": "µM"},
      {"measurement": "IC50", "setting": "SW620 cells", "value": 0.04, "unit": "µM"}
    ]}
  ]
}
